Patent publication US20020137706A1, “Regulated growth factor delivery for engineered peripheral nerve” (priority 2000, published 2002)

Tests used:
[1] = tested on: PC-12 cells; experiment: Bioactivity assay of released NGF, PC-12 differentiation; type: cell-based; conditions: 4 days culture in supernatant of MurA-induced transfected hDFBs; p≦0.002
Method: PC-12 cells were obtained from ATCC (CRL-1721). PC-12 cells were maintained in F12k supplemented with 15% horse serum (Sigma, St. Louis, Mo.), 2.5% FBS, and penicillin-streptomycin-glutamine mixture (Gibco). For the NGF bioactivity assay, PC-12 cells were seeded at 10^2 cells/750 μL in 12-well plates.
NGF Bioactivity. Bioactivity assay of released NGF was assessed using PC-12 cells with their differentiation as the endpoint. PC-12 cells were incubated with PC.12 culture media (control) or media supernatants from transfected hDFBs in the presence of MurA (i.e., media with released NGF). Briefly, hDFBs were cultured and exposed to 3 μM Muristerone for 3 days in 12-well plates.
The media, theoretically with containing NGF released from transfected hDFBs, was then removed and used to culture PC-12 cells in 12-well plates. After 4 days, random images were digitized of each well and the number of differentiated and undifferentiated Data are reported as fraction of PC-12 cells that were differentiated.

[2] = tested on: right sciatic nerve defect; conditions: rat, in vivo
Method: Surgical Technique. Twenty-one Sprague Dawley (250 gms) rats with a right sciatic nerve defect were implanted with the 12 mm PLLA conduits. […] Briefly the animals were anesthetized and maintained by a 0.4 cc intramuscular injection of a premixed solution containing 64 mg/ml ketamine HCL (Keta-Sthetic™ Boehringer Ingelheim, St Joseph, Mo.), 3.6 mg/ml xylazine (Rompun™ Miles Inc., Shawnee Mission, Kans.), and 0.07 mg/ml atropine sulfate (Elkins-Sinn Inc., Cherry Hill, N.J.). The skin from the clipped lateral thigh was scrubbed in a routine fashion with antiseptic solution. The incision extended from the greater trochanter to the midcalf distally. The sciatic and posterior tibial nerves were exposed by a muscle splitting incision. […]
The medical and lateral gastrocnemius muscle was harvested at 6 and 16 weeks and weighed in order to assess nerve reinnervation. […] The difference in weight of the containers before and after muscle placement determined the muscle weight.
Histological Assessment. […] Images of the histological sections were digitized using a CCD camera and subsequently analyzed using standard image processing and analysis techniques. […] The number of axons were counted to give the number of axons/mm^2. The area of each axon was determined, summed together, and expressed as area axons/image area to give the nerve fiber density. […]

| neuromas [2] | Substance | PC-12 differentiation versus media alone [1] | inflammatory reaction [2] |
| --- | --- | --- | --- |
|  | NGF secreted from hDFBs: nerve growth factor in media supernatants from transfected hDFBs in the presence of MurA | markedly higher levels |  |
| no neuromas were apparent clinically | poly (L-Lactic acid) [PLLA conduits] |  | No severe inflammatory reaction could be identified |
